Experimental data taken from patent US10202350B2, “MCT4 inhibitors for treating disease” (Vettore, LLC, priority 2015, dated 2019).

Assays:
Format in all cases: cell-based
MCT4 [1] = biological target: T1, MCT4 (Homo sapiens (Human), UniProt O15427); assay: MCT4-mediated lactate transport in NCI-H358 lung adenocarcinoma cells; conditions: native MCT4, 50 mM L-lactate
Procedure: Cells (˜7×10^6) are trypsinized (0.05% Trypsin-EDTA), pelleted (300 g, 5 min), and resuspended in 1 mL Tyrode's Solution, pH 7.4 (119 mM NaCl, 5 mM KCl, 25 mM HEPES, pH 7.4, 2 mM CaCl2, 2 mM MgCl2, 6 g/L glucose). 10 μL of a 30 mM DMSO stock of BCECF-AM ester (Life Technologies) is added and the cells are incubated at 37° C. for 5 min. The cells are pelleted (300 g, 5 min), washed once with 1 mL Tyrode's Solution, pH 7.4, re-pelleted (300 g, 5 min), and resuspended in 1 mL Tyrode's Solution, pH 7.4.
(§1) 2.5 μL BCECF-loaded cells, along with either 10 μL DMSO or 100×compound in DMSO, are added to 937.5 μL of Tyrode's Solution in a quartz 1.0 mL cuvette (PerkinElmer, B0631116). Fluorescence measurements are performed on a PerkinElmer LS55 fluorescence spectrometer with dual excitation wavelengths achieved using a filter wheel (FL Winlab program: Fast Filter; Excitation 490/440; Emission 535). After establishing baseline BCECF fluorescence (around 10-20 s), 50 μL of 1 M sodium L-lactate (Sigma-Aldrich) is added to the cuvette (final concentration: 50 mM) and rapidly mixed. The time-dependent decrease in BCECF fluorescence (490/440 ratio) may be fit to an exponential decay curve (Prism GraphPad) to determine the rate of lactate transport.
Assay 2: MCT4-Mediated Lactate Transport in NCI-H358 Lung Adenocarcinoma Cells.
NCI-H358 lung adenocarcinoma cells may be used to measure MCT4 activity in cells with high native levels of MCT4 and low levels of MCT1 and are known to those with skill in the art. Preparation of BCECF-loaded cells and lactate transport activity may be determined as described for Assay 1.

MCT1 = MCT1 (Homo sapiens (Human), UniProt P53985); assay: MCT1-mediated lactate transport in BT20 breast cancer cells; conditions: native MCT1, 10 mM L-lactate
Sequence of MCT1 (P53985 whole entry): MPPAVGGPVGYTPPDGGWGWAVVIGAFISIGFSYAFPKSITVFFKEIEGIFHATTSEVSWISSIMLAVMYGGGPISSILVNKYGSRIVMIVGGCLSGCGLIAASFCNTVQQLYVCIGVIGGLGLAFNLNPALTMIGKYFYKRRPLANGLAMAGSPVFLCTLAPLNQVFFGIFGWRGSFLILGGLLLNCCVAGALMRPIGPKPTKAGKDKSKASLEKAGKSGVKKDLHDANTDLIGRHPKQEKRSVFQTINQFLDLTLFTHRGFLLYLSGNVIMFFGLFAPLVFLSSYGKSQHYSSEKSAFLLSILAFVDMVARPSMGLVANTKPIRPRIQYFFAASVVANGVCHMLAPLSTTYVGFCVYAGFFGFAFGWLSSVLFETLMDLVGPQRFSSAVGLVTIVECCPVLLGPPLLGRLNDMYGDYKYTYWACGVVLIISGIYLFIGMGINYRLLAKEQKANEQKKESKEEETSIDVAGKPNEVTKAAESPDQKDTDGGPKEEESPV
Sequence of MCT1 (P35613 140-385 partner): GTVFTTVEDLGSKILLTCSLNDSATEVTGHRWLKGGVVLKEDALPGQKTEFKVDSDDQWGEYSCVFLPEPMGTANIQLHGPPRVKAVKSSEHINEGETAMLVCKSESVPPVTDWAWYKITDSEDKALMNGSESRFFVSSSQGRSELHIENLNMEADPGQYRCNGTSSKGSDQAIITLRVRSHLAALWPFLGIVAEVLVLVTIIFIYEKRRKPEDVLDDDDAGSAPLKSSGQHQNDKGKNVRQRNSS
Procedure: (§2) 10 μL of a 30 mM DMSO stock of BCECF-AM ester (Life Technologies) is added and the cells are incubated at 37° C. for 5 min. The cells are pelleted (300 g, 5 min), washed once with 1 mL Tyrode's Solution, pH 7.4, re-pelleted (300 g, 5 min), and resuspended in 1 mL Tyrode's Solution, pH 7.4.
as §1, with “Fluorescence measurements are performed on a PerkinElmer LS55 fluorescence spectrometer with dual excitation wavelengths achieved using a filter wheel (FL Winlab program: Fast Filter; Excitation 490/440; Emission 535).” left out
Assay 4: MCT1-Mediated Lactate Transport in BT20 Breast Cancer Cells.
Preparation of BCECF loaded cells are as described for Assay 1. Lactate transport assay is as described for Assay 1, except 10 mM L-lactate (rather than 50 mM) is added.

MCT4 [2] = biological target: T1, MCT4; assay: Lactate transport in MCT4-expressing MDA-MB-453 breast cancer cells (BCECF); conditions: MDA-MB-453 cells stably expressing MCT4; 50 mM L-lactate
Procedure: Assay 1: Lactate Transport in MCT4-Expressing MDA-MB-453 Breast Cancer Cells. […] The following is an exemplary procedure for assaying MCT4 activity of the compounds of Formula (I). Preparing BCECF-Loaded Cells: […] The cells are pelleted (300 g, 5 min), washed once with 1 mL Tyrode's Solution, pH 7.4, re-pelleted (300 g, 5 min), and resuspended in 1 mL Tyrode's Solution, pH 7.4. Lactate Transport Assay: […] Fluorescence measurements are performed on a PerkinElmer LS55 fluorescence spectrometer with dual excitation wavelengths achieved using a filter wheel (FL Winlab program: Fast Filter; […] Emission 535). After establishing baseline BCECF fluorescence (around 10-20 s), 50 μL of 1 M sodium L-lactate (Sigma-Aldrich) is added to the cuvette (final concentration: 50 mM) and rapidly mixed.

MCT4 [3] = biological target: T1, MCT4; assay: MCT4-mediated lactate transport in MDA-MB-231 breast cancer cells; conditions: MDA-MB-231 cells, native MCT4; 50 mM L-lactate
Procedure: as §2
as §1, with “Fluorescence measurements are performed on a PerkinElmer LS55 fluorescence spectrometer with dual excitation wavelengths achieved using a filter wheel (FL Winlab program: Fast Filter; Excitation 490/440; Emission 535).” left out
Preparation of BCECF-loaded cells and lactate transport activity may be determined as described for Assay 1.

T1 sequence (O15427 whole entry, looked up): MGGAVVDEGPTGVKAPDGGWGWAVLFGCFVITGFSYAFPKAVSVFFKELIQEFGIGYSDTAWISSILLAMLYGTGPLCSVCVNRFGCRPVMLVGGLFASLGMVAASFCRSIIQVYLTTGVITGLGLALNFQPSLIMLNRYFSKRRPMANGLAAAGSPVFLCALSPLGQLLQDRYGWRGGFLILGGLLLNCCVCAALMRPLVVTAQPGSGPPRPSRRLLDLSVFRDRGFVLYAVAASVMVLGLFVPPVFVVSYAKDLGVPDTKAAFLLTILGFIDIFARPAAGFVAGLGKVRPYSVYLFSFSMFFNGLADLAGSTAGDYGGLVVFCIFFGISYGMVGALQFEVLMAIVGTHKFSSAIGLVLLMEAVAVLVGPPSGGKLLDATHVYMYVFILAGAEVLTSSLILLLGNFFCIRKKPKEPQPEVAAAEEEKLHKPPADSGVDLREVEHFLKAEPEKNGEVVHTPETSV
T1 sequence (P35613 whole entry partner, looked up): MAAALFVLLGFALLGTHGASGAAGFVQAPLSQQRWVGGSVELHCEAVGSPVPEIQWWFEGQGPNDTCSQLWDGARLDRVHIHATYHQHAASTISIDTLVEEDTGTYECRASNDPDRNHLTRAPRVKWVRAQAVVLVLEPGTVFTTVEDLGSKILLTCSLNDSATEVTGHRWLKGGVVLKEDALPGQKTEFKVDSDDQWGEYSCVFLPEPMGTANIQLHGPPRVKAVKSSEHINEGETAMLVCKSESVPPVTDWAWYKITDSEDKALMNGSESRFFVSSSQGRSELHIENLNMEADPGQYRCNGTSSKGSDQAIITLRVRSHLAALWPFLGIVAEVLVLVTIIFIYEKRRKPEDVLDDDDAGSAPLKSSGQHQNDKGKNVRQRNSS

| IC50 (MCT4 [1]) [nM] | IC50 (MCT1; Table 2) [nM] | IC50 (MCT4 [2]) [nM] | IC50 (MCT1; Table 3) [nM] | IC50 (MCT4 [3]) [nM] | Compound |
| --- | --- | --- | --- | --- | --- |
| 140 | 50000 | 340 | – | – | CC(C)(OCc1cc(-c2ccccc2)n(Cc2cccc(Cl)c2)n1)C(=O)O [Example 1, 2-[[1-[(3-Chlorophenyl)methyl]-5-phenyl-pyrazol-3-yl]methoxy]-2-methyl-propanoic Acid] |
| 240 | 29000 | 450 | – | – | CC(C)(OCc1cc(-c2ccc(Cl)cc2)n(Cc2ccc(Cl)cc2)n1)C(=O)O [Example 2] |
| 60 | 25000 | 72 | – | – | CC(C)(OCc1cc(-c2ccc(Cl)cc2)n(Cc2ccccc2Cl)n1)C(=O)O [Example 3, 2-[[5-(4-Chlorophenyl)-1-[(2-chlorophenyl)methyl]pyrazol-3-yl]methoxy]-2-methyl-propanoic acid] |
| 54 | 33000 | 68 | – | – | CC(C)(OCc1cc(-c2ccc(F)cc2)n(Cc2ccccc2Cl)n1)C(=O)O [Example 4, 2-[[1-[(2-Chlorophenyl)methyl]-5-(4-fluorophenyl)pyrazol-3-yl]methoxy]-2-methyl-propanoic acid] |
| 63 | 1800 | 160 | – | – | CC(C)(OCc1cc(-c2ccc(Cl)cc2)n(Cc2ccc(Cl)cc2Cl)n1)C(=O)O [Example 5, 2-[[5-(4-Chlorophenyl)-1-[(2,4-dichlorophenyl)methyl]pyrazol-3-yl]methoxy]-2-methyl-propanoic acid] |
| 4600 | 6600 | 2400 | – | – | O=C(O)COCc1cc(-c2ccc(Cl)cc2)n(Cc2ccc(Cl)cc2Cl)n1 [Example 6, 2-[[5-(4-Chlorophenyl)-1-[(2,4-dichlorophenyl)methyl]pyrazol-3-yl]methoxy]acetic acid] |
| 460 | 70000 | 720 | – | – | CC(C)(OCc1cc(-c2ccc(Cl)cc2)n(Cc2ccccc2)n1)C(=O)O [Example 7, 2-[[1-Benzyl-5-(4-Chlorophenyl)pyrazol-3-yl]methoxy]-2-methyl-propanoic acid] |
| 81 | 46000 | 69 | – | – | CC(C)(OCc1cc(-c2ccccc2)n(Cc2ccccc2Cl)n1)C(=O)O [Example 8, 2-[[1-[(2-Chlorophenyl)methyl]-5-phenyl-pyrazol-3-yl]methoxy]-2-methyl-propanoic acid] |
| 2100 | – | 1500 | – | – | CC(C)(OCc1cc(-c2ccc(Cl)cc2)n(Cc2cccnc2)n1)C(=O)O [Example 23, 2-[[5-(4-Chlorophenyl)-1-(3-pyridylmethyl)pyrazol-3-yl]methoxy]-2-methyl-propanoic acid] |
| – | – | – | 11000 | 3.1 | COc1ccccc1Cn1nc(COC(C)(C)C(=O)O)cc1-c1cccc(OCC(C)C)c1 [Example 61, 2-([1-[(2-methoxyphenyl)methyl]-5-[3-(2-methylpropoxy)phenyl]-1H-pyrazol-3-yl]methoxy)-2-methylpropanoic acid] |
| – | – | – | 27000 | 33 | COc1cccc(Cn2nc(COC(C)(C)C(=O)O)cc2-c2cccc(OCC(C)C)c2)c1 [Example 62, 2-([1-[(3-methoxyphenyl)methyl]-5-[3-(2-methylpropoxy)phenyl]-1H-pyrazol-3-yl]methoxy)-2-methylpropanoic acid] |
| – | – | – | 17000 | 37 | COc1ccc(Cn2nc(COC(C)(C)C(=O)O)cc2-c2cccc(OCC(C)C)c2)cc1 [Example 63, 2-([1-[(4-methoxyphenyl)methyl]-5-[3-(2-methylpropoxy)phenyl]-1H-pyrazol-3-yl]methoxy)-2-methylpropanoic acid] |
| – | – | – | 17000 | 11 | CCC(CC)(OCc1cc(-c2cccc(OC)c2)n(Cc2ccccc2Cl)n1)C(=O)O [Example 67] |
| – | – | – | > 100000 | 5800 | CC(C)C(=O)Nc1cccc(-c2cc(COC(C)(C)C(=O)O)nn2Cc2ccccc2Cl)c1 [Example 69, 2-([1-[(2-Chlorophenyl)methyl]-5-[3-(2-methylpropanamido)phenyl]-1H-pyrazol-3-yl]methoxy)-2-methylpropanoic Acid] |
| – | – | – | > 100000 | 9300 | CC(C)(OCc1cc(-c2cccc(S(C)(=O)=O)c2)n(Cc2ccccc2Cl)n1)C(=O)O [Example 70, 2-([1-[(2-chlorophenyl)methyl]-5-(3-methanesulfonylphenyl)-1H-pyrazol-3-yl]methoxy)-2-methylpropanoic Acid] |
| – | – | – | 64000 | 34000 | CC(C)(OCc1cc(-c2cccc(NS(C)(=O)=O)c2)n(Cc2ccccc2Cl)n1)C(=O)O [Example 71, 2-([1-[(2-chlorophenyl)methyl]-5-(3-methanesulfonamidophenyl)-1H-pyrazol-3-yl]methoxy)-2-methylpropanoic Acid] |
| – | – | – | 45000 | 220 | CNc1cccc(-c2cc(COC(C)(C)C(=O)O)nn2Cc2ccccc2Cl)c1 [Example 72, 2-([1-[(2-Chlorophenyl)methyl]-5-[3-(methylamino)phenyl]-1H-pyrazol-3-yl]methoxy)-2-methylpropanoic Acid] |
| – | – | – | > 11000 | 21 | CC(C)CNc1cccc(-c2cc(COC(C)(C)C(=O)O)nn2Cc2ccccc2Cl)c1 [Example 73, 2-([1-[(2-chlorophenyl)methyl]-5-[3-[(2-methylpropyl)amino]phenyl]-1H-pyrazol-3-yl]methoxy)-2-methylpropanoic Acid] |
| – | – | – | > 100000 | 6400 | CC(C)NC(=O)c1cccc(-c2cc(COC(C)(C)C(=O)O)nn2Cc2ccccc2Cl)c1 [Example 74, 2-([1-[(o-Chlorophenyl)methyl]-5-[m-(isopropylamino)carbonylphenyl]-1H-pyrazol-3-yl]methoxy)-2-methylpropionic Acid] |
| – | – | – | > 100000 | 1700 | CC(C)(OCc1cc(Nc2ccccc2)n(Cc2ccccc2Cl)n1)C(=O)O [Example 75, 2-([1-[(2-chlorophenyl)methyl]-5-(phenylamino)-1H-pyrazol-3-yl]methoxy)-2-methylpropanoic Acid] |
| – | – | – | 38000 | 400 | CC(C)(OCc1cc(Oc2ccccc2)n(Cc2ccccc2Cl)n1)C(=O)O [Example 76, 2-([1-[(2-Chlorophenyl)methyl]-5-phenoxy-1H-pyrazol-3-yl]methoxy)-2-methylpropanoic Acid] |
| – | – | – | 15000 | 59 | CC(C)(OCc1cc(-c2cccc(O)c2)n(Cc2ccccc2Cl)n1)C(=O)O [Example 79, 2-[[1-[(2-Chlorophenyl)methyl]-5-(3-hydroxyphenyl)pyrazol-3-yl]methoxy]-2-methyl-propanoic Acid] |
| – | – | – | 6600 | 6300 | COc1cccc(-c2cc(COC(C)(C)C(=O)NS(C)(=O)=O)nn2Cc2ccccc2Cl)c1 [Example 81, 2-[[1-[(2-chlorophenyl)methyl]-5-(3-methoxyphenyl)pyrazol-3-yl]methoxy]-2-methyl-N-methylsulfonyl-propanamide] |
| – | – | – | 16000 | 460 | COC(=O)C(C)(C)OCc1cc(-c2cccc(OC)c2)n(Cc2ccccc2Cl)n1 [Example 82, Methyl 2-[[1-[(2-chlorophenyl)methyl]-5-(3-methoxyphenyl)pyrazol-3-yl]methoxy]-2-methyl-propanoate] |
